We go through five compounds from doi:10.1101/679118v2 (biorxiv, 2019).

This test has as its system E. histolytica. The test can be described thus: microbe, parasite or virus in culture. The arrangement: species or system Entamoeba histolytica HM-1:IMSS trophozoites. The conditions noted are these: Entamoeba histolytica, 24 h, read-out: EC50 E. histolytica.
For orientation: EC50 means the concentration at which the effect is half-maximal. For `O=C(O)c1cn(C2CC2)c2cc(N3CCNCC3)c(F)cc2c1=O` [ciprofloxacin], the EC50 was found to be 250 µM. For the compound `COc1cc(NS(C)(=O)=O)ccc1Nc1c2ccccc2nc2ccccc12` [Amsacrine], the EC50 worked out at 80 µM. Consider `C[C@H]([C@H](C)N1CC(=O)NC(=O)C1)N1CC(=O)NC(=O)C1` [ICRF 193], for which the EC50 turned out to be 15 µM. Regarding `NC1CCN(c2c(F)cc3c(=O)c(C(=O)O)cn(C4CC4)c3c2Cl)C1` (centres unmarked) [Clinafloxacin], the EC50 was 270 µM. `COc1cc([C@@H]2c3cc4c(cc3[C@@H](O[C@@H]3O[C@@H]5CO[C@@H](C)O[C@H]5[C@H](O)[C@H]3O)[C@H]3COC(=O)[C@H]23)OCO4)cc(OC)c1O` [etoposide]: the EC50 was found to be 200 µM.
